Toxic doses and inconclusive results are not listed. Cut-off read from the data, not from the text of the source: active = T/C of 150% or more; inactive = T/C below 125%.
System: L1210 leukemia ip in BDF1 mice, survival T/C
Experiment: NCI In Vivo Anticancer Drug Screen. Data for tumor model L1210 Leukemia (intraperitoneal) in B6D2F1 (BDF1) mice
Details: endpoint: mean survival time, higher = longer survival
Procedure, shortened: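 Read-out is survival time, reported as the treated-group measurement over the vehicle-control measurement.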

[1] = dose: 100.0 mg/kg/injection, schedule: Q01DX009 (ip), vehicle: saline
[2] = dose: 100.0 mg/kg/injection, schedule: Q04DX003 (ip), vehicle: Klucel (hydroxypropylcellulose) (HPC)
[3] = dose: 200.0 mg/kg/injection, schedule: Q01DX009 (ip), vehicle: saline
[4] = dose: 200.0 mg/kg/injection, schedule: Q04DX003 (ip), vehicle: Klucel (hydroxypropylcellulose) (HPC)
[5] = dose: 400.0 mg/kg/injection, schedule: Q01DX009 (ip), vehicle: saline
[6] = dose: 400.0 mg/kg/injection, schedule: Q04DX003 (ip), vehicle: Klucel (hydroxypropylcellulose) (HPC)
[7] = dose: 100.0 mg/kg/injection, schedule: Q01DX009 (ip), vehicle: saline with Tween-80
[8] = dose: 200.0 mg/kg/injection, schedule: Q01DX009 (ip), vehicle: saline with Tween-80
[9] = dose: 100.0 mg/kg/injection, schedule: Q04DX002 (ip), vehicle: Klucel (hydroxypropylcellulose) (HPC)
[10] = dose: 200.0 mg/kg/injection, schedule: Q04DX002 (ip), vehicle: Klucel (hydroxypropylcellulose) (HPC)
[11] = dose: 400.0 mg/kg/injection, schedule: Q04DX002 (ip), vehicle: Klucel (hydroxypropylcellulose) (HPC)
[12] = dose: 100.0 mg/kg/injection, schedule: Q01DX009 (ip), vehicle: Klucel (hydroxypropylcellulose) (HPC)
[13] = dose: 200.0 mg/kg/injection, schedule: Q01DX009 (ip), vehicle: Klucel (hydroxypropylcellulose) (HPC)
[14] = dose: 400.0 mg/kg/injection, schedule: Q01DX009 (ip), vehicle: Klucel (hydroxypropylcellulose) (HPC)
[15] = dose: 100.0 mg/kg/injection, schedule: Q01DX001 (ip), vehicle: carboxymethylcellulose (CMC)
[16] = dose: 200.0 mg/kg/injection, schedule: Q01DX001 (ip), vehicle: carboxymethylcellulose (CMC)
[17] = dose: 400.0 mg/kg/injection, schedule: Q01DX001 (ip), vehicle: carboxymethylcellulose (CMC)
[18] = dose: 50.0 mg/kg/injection, schedule: Q01DX009 (ip), vehicle: saline with Tween-80
[19] = dose: 100.0 mg/kg/injection, schedule: Q04DX003 (ip), vehicle: saline with Tween-80
[20] = dose: 200.0 mg/kg/injection, schedule: Q04DX003 (ip), vehicle: saline with Tween-80

Measured: T/C

N#Cc1c2c(c(O)[nH]c1=O)CCCC2
inactive: [1] 97 % of control | [2] 94 % of control | [3] 97 % of control | [4] 102 % of control | [5] 101 % of control | [6] 96 % of control

COC(=O)CCNc1ccccc1
inactive: [7] 108 % of control | [8] 100 % of control | dose: 400.0 mg/kg/injection, schedule: Q01DX009 (ip), vehicle: saline with Tween-80 102 % of control

O=C(O)c1cc([N+](=O)[O-])ccc1Nc1cccc2ccccc12
inactive: dose: 100.0 mg/kg/injection, schedule: Q04DX003 (ip), vehicle: saline 90 % of control | dose: 200.0 mg/kg/injection, schedule: Q04DX003 (ip), vehicle: saline 97 % of control

CC1CN(C(C)(C)C)C1
inactive: dose: 100.0 mg/kg/injection, schedule: Q04DX003 (ip), vehicle: acetone 95 % of control

CCOC(=O)CNc1ccc(C)c(C)c1
inactive: [9] 95 % of control | [10] 109 % of control | [11] 104 % of control

CC(=O)Nc1ccn(C2OC(COC(C)=O)C(OC3OC4COC(c5ccccc5)OC4C(OC(C)=O)C3OC(C)=O)C(OC(C)=O)C2OC(C)=O)c(=O)n1 (configuration not stated)
inactive: dose: 22.5 mg/kg/injection, schedule: Q01DX001 (ip), vehicle: carboxymethylcellulose (CMC) 97 % of control | dose: 45.0 mg/kg/injection, schedule: Q01DX001 (ip), vehicle: carboxymethylcellulose (CMC) 103 % of control | dose: 90.0 mg/kg/injection, schedule: Q01DX001 (ip), vehicle: carboxymethylcellulose (CMC) 92 % of control | dose: 180.0 mg/kg/injection, schedule: Q01DX001 (ip), vehicle: carboxymethylcellulose (CMC) 97 % of control

c1ccc2[nH]c(CN3CCCCC3)cc2c1
inactive: dose: 12.5 mg/kg/injection, schedule: Q04DX003 (ip), vehicle: saline with Tween-80 103 % of control | dose: 25.0 mg/kg/injection, schedule: Q04DX003 (ip), vehicle: saline with Tween-80 98 % of control | dose: 50.0 mg/kg/injection, schedule: Q04DX003 (ip), vehicle: saline with Tween-80 98 % of control

CC(=O)c1cccc(NC(=O)c2c(Br)c(Br)c(Br)c(Br)c2C(=O)O)c1
inactive: [12] 97 % of control | [13] 104 % of control | [14] 109 % of control

CCOc1ccc(NC(=O)OCCN2CCN(CCc3ccccc3)C(C)C2)cc1 (configuration not stated)
inactive: dose: 100.0 mg/kg/injection, schedule: Q01DX001 (ip), vehicle: saline 98 % of control | dose: 200.0 mg/kg/injection, schedule: Q01DX001 (ip), vehicle: saline 95 % of control

O=c1[nH][nH]c(=O)c2c([N+](=O)[O-])cccc12
inactive: dose: 100.0 mg/kg/injection, schedule: Q01DX001 (ip), vehicle: other 90 % of control | dose: 200.0 mg/kg/injection, schedule: Q01DX001 (ip), vehicle: other 92 % of control | dose: 400.0 mg/kg/injection, schedule: Q01DX001 (ip), vehicle: other 87 % of control

COc1cc(Cl)ccc1NC(=O)OCc1ccco1
inactive: [1] 111 % of control | [3] 111 % of control | [5] 100 % of control

CCCCCc1cc(O)c2c3c(c(=O)oc2c1)CCC(=O)C3
inactive: [15] 97 % of control | [16] 100 % of control | [17] 97 % of control

O=[N+]([O-])c1ccc(N=Nc2ccc3c(c2)-c2ccccc2/C3=C\c2cccc([N+](=O)[O-])c2)cc1
inactive: [15] 93 % of control | [16] 96 % of control | [17] 98 % of control

CCCNC(=O)c1cc(NC(=O)Nc2ccc(C3=NCCN3)cc2)cc(NC(=O)Nc2ccc(C3=NCCN3)cc2)c1
inactive: dose: 2.5 mg/kg/injection, schedule: Q01DX Z (ip), vehicle: carboxymethylcellulose (CMC) 104 % of control | dose: 5.0 mg/kg/injection, schedule: Q01DX Z (ip), vehicle: carboxymethylcellulose (CMC) 112 % of control | dose: 20.0 mg/kg/injection, schedule: Q01DX Z (ip), vehicle: carboxymethylcellulose (CMC) 124 % of control | dose: 42.0 mg/kg/injection, schedule: Q01DX Z (ip), vehicle: carboxymethylcellulose (CMC) 115 % of control

CCCCCCC(O)C[N+](=O)[O-] (configuration not stated)
inactive: dose: 12.5 mg/kg/injection, schedule: Q01DX009 (ip), vehicle: saline with Tween-80 100 % of control | dose: 25.0 mg/kg/injection, schedule: Q01DX009 (ip), vehicle: saline with Tween-80 98 % of control | [18] 93 % of control | [19] 107 % of control | [20] 86 % of control

O=C1CCC2=C(CCCCCC2)N1c1ccccc1
inactive: [19] 110 % of control | [20] 110 % of control | dose: 400.0 mg/kg/injection, schedule: Q04DX003 (ip), vehicle: saline with Tween-80 98 % of control

CC(Cc1cc(C)nc(NC#N)n1)=Nc1ccccc1
inactive: [9] 100 % of control | [10] 92 % of control | [11] 100 % of control

CC(C)OC(=O)NCc1cccs1
inactive: dose: 100.0 mg/kg/injection, schedule: Q01DX009 (ip), vehicle: carboxymethylcellulose (CMC) 104 % of control | dose: 200.0 mg/kg/injection, schedule: Q01DX009 (ip), vehicle: carboxymethylcellulose (CMC) 101 % of control | dose: 400.0 mg/kg/injection, schedule: Q01DX009 (ip), vehicle: carboxymethylcellulose (CMC) 104 % of control

CCOC(=O)NC(CI)c1ccccc1 (configuration not stated)
inactive: [18] 96 % of control | [7] 88 % of control | [8] 96 % of control

COc1cc2c(cc1OC)-c1cc3cc(OC)c(OC)cc3c(C)[n+]1CC2
inactive: dose: 12.5 mg/kg/injection, schedule: Q04DX002 (ip), vehicle: Klucel (hydroxypropylcellulose) (HPC) 102 % of control | dose: 25.0 mg/kg/injection, schedule: Q04DX002 (ip), vehicle: Klucel (hydroxypropylcellulose) (HPC) 105 % of control | dose: 50.0 mg/kg/injection, schedule: Q04DX002 (ip), vehicle: Klucel (hydroxypropylcellulose) (HPC) 105 % of control

O=C1c2ccccc2C(=O)C1(Br)C(Br)c1ccccc1 (configuration not stated)
inactive: [12] 102 % of control | [2] 96 % of control | [13] 101 % of control | [4] 94 % of control | [14] 93 % of control | [6] 96 % of control

COc1ccc(-c2ccc(OC)cc2OC)c(OC)c1
inactive: [15] 112 % of control | [16] 107 % of control | [17] 112 % of control

CCOC(=O)NC(NC(=O)OCC)c1ccc(Cl)cc1Cl
inactive: [15] 88 % of control | [17] 88 % of control

O=[N+]([O-])/C=C/c1ccccc1O
inactive: dose: 6.25 mg/kg/injection, schedule: Q04DX003 (ip), vehicle: saline 92 % of control | dose: 12.5 mg/kg/injection, schedule: Q04DX003 (ip), vehicle: saline 101 % of control | dose: 25.0 mg/kg/injection, schedule: Q04DX003 (ip), vehicle: saline 92 % of control
